Experimental findings from PubChem BioAssay AID588512 (NMMLSC, 2011) are described below.

Activity calls are given as the source filed them.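 How the source made its calls: active means viability below 80%, counted as toxic; inactive means the rest.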

In this assay the test system is HEK-293 viability, CellTiter-Glo ATP luminescence, 3 days. Description: viability loss in HEK-293 cells – cell-based, powder set 1, cytotoxicity control for GRK2 aptamer-displacement inhibitor project, late-stage follow-up (AID 588512). The conditions noted are these: at 20 µM; active compounds read low.
Regarding `O=C(O)C1CC(=O)N(c2ccc3c(c2)OCCO3)C1` (stereo not given), the viability – broadly, a read-out of living cells in per cent, often relative to untreated cells – was 133% (inactive). Consider `COc1ccc(CNC(=O)CCS(=O)(=O)c2ccc(Br)cc2)cc1`, for which the viability was 95.2% (inactive).

Regarding `O=C(CCS(=O)(=O)c1ccc(Br)cc1)NCCc1ccc(Cl)cc1`, the viability was 124% (inactive). Regarding `CCOc1ccc(CCNC(=O)CCS(=O)(=O)c2ccc(Br)cc2)cc1OCC`, the viability was 123% (inactive).

On to `Cc1cccc(N2CCN(C(=O)CCS(=O)(=O)c3ccc(Br)cc3)CC2C)c1` (stereo not given), for which the viability was 113% (inactive). Regarding `CCc1ccccc1NC(=O)CCS(=O)(=O)c1ccc(Br)cc1`, the viability is 82.6% (inactive). Under `Cc1ccccc1NC(=O)CCS(=O)(=O)c1ccc(Br)cc1` stands 128% (inactive); under `O=C(CCS(=O)(=O)c1ccc(Br)cc1)Nc1cc(F)ccc1F`, 110% (inactive); under `Cc1cc(=O)[nH]c(SCC(=O)NCc2ccco2)n1`, 69.3%. As for `Cc1cc2ccccc2n1CCNC(=O)c1cccs1`, the viability was 109% (inactive).
